From PubChem BioAssay (NCI)
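All cell lines were grown in 96-well plates and treated with compound for 48 hours. The concentration for 50% growth inhibition is given as GI50. TGI marks complete inhibition of growth.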

How the values were obtained:
Assay in all cases: inhibition of tumour cell growth, NCI panel, 48 h
BT-549 breast = system: BT-549 breast
MDA-MB-231 breast = system: MDA-MB-231 breast
EKVX NSCLC = system: EKVX NSCLC
NCI-H226 lung = system: NCI-H226 lung
MDA-MB-435 = system: MDA-MB-435
CCRF-CEM leukemia = system: CCRF-CEM leukemia
HOP-92 NSCLC = system: HOP-92 NSCLC
SK-MEL-28 melanoma = system: SK-MEL-28 melanoma
UACC-257 melanoma = system: UACC-257 melanoma
SK-MEL-2 melanoma = system: SK-MEL-2 melanoma
CAKI-1 renal = system: CAKI-1 renal
NCI-H522 lung = system: NCI-H522 lung
TK-10 renal = system: TK-10 renal
RXF 393 renal = system: RXF 393 renal
MOLT-4 leukemia = system: MOLT-4 leukemia
SN12C renal = system: SN12C renal
HOP-62 NSCLC = system: HOP-62 NSCLC
RPMI-8226 leukemia = system: RPMI-8226 leukemia
SW-620 colon = system: SW-620 colon
HS 578T breast = system: HS 578T breast
SK-OV-3 ovarian = system: SK-OV-3 ovarian
HT29 colon = system: HT29 colon
SF-268 CNS = system: SF-268 CNS
U251 CNS = system: U251 CNS
ACHN renal = system: ACHN renal
SNB-19 CNS = system: SNB-19 CNS
A498 renal = system: A498 renal
HCT-15 colon = system: HCT-15 colon
T-47D breast = system: T-47D breast
NCI/ADR-RES ovarian = system: NCI/ADR-RES ovarian
KM12 colon = system: KM12 colon
DU-145 prostate = system: DU-145 prostate
A549 NSCLC = system: A549 NSCLC
OVCAR-4 ovarian = system: OVCAR-4 ovarian
HCT-116 colon = system: HCT-116 colon
SNB-75 CNS = system: SNB-75 CNS
OVCAR-3 ovarian = system: OVCAR-3 ovarian
OVCAR-8 ovarian = system: OVCAR-8 ovarian
MCF7 breast = system: MCF7 breast
MDA-N = system: MDA-N
OVCAR-5 ovarian = system: OVCAR-5 ovarian
LOX IMVI melanoma = system: LOX IMVI melanoma
NCI-H23 lung = system: NCI-H23 lung
K-562 leukemia = system: K-562 leukemia
SR leukemia = system: SR leukemia
UO-31 renal = system: UO-31 renal
MALME-3M melanoma = system: MALME-3M melanoma
SK-MEL-5 melanoma = system: SK-MEL-5 melanoma
IGROV1 ovarian = system: IGROV1 ovarian
786-0 renal = system: 786-0 renal
M14 melanoma = system: M14 melanoma
HL-60(TB) leukemia = system: HL-60(TB) leukemia
UACC-62 melanoma = system: UACC-62 melanoma
SF-295 CNS = system: SF-295 CNS
COLO 205 colon = system: COLO 205 colon
PC-3 prostate = system: PC-3 prostate
SF-539 CNS = system: SF-539 CNS

Compound: CC(=O)c1ccc2c3c1[C@H]1O[C@H]1c1cccc(c1-3)[C@@H]1O[C@H]21
- TGI (BT-549 breast): 4.53 µM
- TGI (MDA-MB-231 breast): 4.44 µM
- TGI (EKVX NSCLC): 4.03 µM
- TGI (NCI-H226 lung): > 88.3 µM
- TGI (MDA-MB-435): 4.54 µM
- TGI (CCRF-CEM leukemia): 4.2 µM
- TGI (HOP-92 NSCLC): 3.69 µM
- TGI (SK-MEL-28 melanoma): 5.96 µM
- TGI (UACC-257 melanoma): 8.1 µM
- GI50 (SK-MEL-2 melanoma): 3.79 µM
- TGI (SK-MEL-2 melanoma): > 100 µM
- TGI (CAKI-1 renal): 2.67 µM
- TGI (NCI-H522 lung): 1.1 µM
- TGI (TK-10 renal): > 51.2 µM
- TGI (RXF 393 renal): 3.82 µM
- TGI (MOLT-4 leukemia): > 32.6 µM
- TGI (SN12C renal): 3.86 µM
- TGI (HOP-62 NSCLC): 8.83 µM
- TGI (RPMI-8226 leukemia): 8.35 µM
- TGI (SW-620 colon): 3.01 µM
- TGI (HS 578T breast): 4.95 µM
- TGI (SK-OV-3 ovarian): 16 µM
- TGI (HT29 colon): 7.81 µM
- TGI (SF-268 CNS): 3.86 µM
- TGI (U251 CNS): 4.3 µM
- TGI (ACHN renal): 3.79 µM
- TGI (SNB-19 CNS): 13.1 µM
- GI50 (A498 renal): 2.74 µM
- TGI (A498 renal): 7.36 µM
- TGI (HCT-15 colon): 4.12 µM
- TGI (T-47D breast): 6.55 µM
- GI50 (NCI/ADR-RES ovarian): 2.3 µM
- TGI (NCI/ADR-RES ovarian): 5.68 µM
- TGI (KM12 colon): 5.31 µM
- TGI (DU-145 prostate): 7.19 µM
- TGI (A549 NSCLC): 9.32 µM
- TGI (OVCAR-4 ovarian): 3.59 µM
- TGI (HCT-116 colon): 3.87 µM
- TGI (SNB-75 CNS): 6.12 µM
- TGI (OVCAR-3 ovarian): 12.1 µM
- TGI (OVCAR-8 ovarian): 3.49 µM
- TGI (MCF7 breast): > 33.5 µM
- TGI (MDA-N): 5.86 µM
- TGI (OVCAR-5 ovarian): 3.68 µM
- TGI (LOX IMVI melanoma): 1.2 µM
- TGI (NCI-H23 lung): 3.42 µM
- TGI (K-562 leukemia): > 35.2 µM
- TGI (SR leukemia): > 100 µM
- TGI (UO-31 renal): 3.41 µM
- TGI (MALME-3M melanoma): 3.07 µM
- TGI (SK-MEL-5 melanoma): 5.39 µM
- TGI (IGROV1 ovarian): 0.294 µM
- GI50 (786-0 renal): 1.74 µM
- TGI (786-0 renal): 4 µM
- TGI (M14 melanoma): 3.38 µM
- TGI (HL-60(TB) leukemia): 5.75 µM
- TGI (UACC-62 melanoma): 4.15 µM
- TGI (SF-295 CNS): 18 µM
- TGI (COLO 205 colon): 3.59 µM

Compound: COc1ccc(C(OCC2OC3(COC(c4ccccc4)(c4ccc(OC)cc4)c4ccc(OC)cc4)C(Oc4nc(=O)ccn43)C2O)(c2ccccc2)c2ccc(OC)cc2)cc1 (stereo not drawn)
- TGI (BT-549 breast): > 100 µM
- TGI (MDA-MB-231 breast): > 100 µM
- TGI (EKVX NSCLC): > 100 µM
- TGI (NCI-H226 lung): > 100 µM
- TGI (MDA-MB-435): > 100 µM
- TGI (CCRF-CEM leukemia): > 100 µM
- TGI (SK-MEL-28 melanoma): > 100 µM
- TGI (UACC-257 melanoma): > 100 µM
- TGI (SK-MEL-2 melanoma): > 100 µM
- TGI (CAKI-1 renal): > 100 µM
- TGI (NCI-H522 lung): > 100 µM
- TGI (PC-3 prostate): > 100 µM
- TGI (TK-10 renal): > 100 µM
- TGI (RXF 393 renal): > 100 µM
- TGI (MOLT-4 leukemia): > 100 µM
- TGI (SF-539 CNS): > 100 µM
- TGI (SN12C renal): > 100 µM
- TGI (HOP-62 NSCLC): > 100 µM
- TGI (RPMI-8226 leukemia): > 100 µM
- TGI (SW-620 colon): > 100 µM
- TGI (HS 578T breast): 51.8 µM
- TGI (SK-OV-3 ovarian): > 100 µM
- TGI (HT29 colon): > 100 µM
- TGI (SF-268 CNS): > 100 µM
- TGI (U251 CNS): > 100 µM
- TGI (ACHN renal): > 100 µM
- TGI (SNB-19 CNS): > 100 µM
- TGI (HCT-15 colon): > 100 µM
- TGI (T-47D breast): > 100 µM
- TGI (NCI/ADR-RES ovarian): > 100 µM
- TGI (KM12 colon): > 100 µM
- TGI (DU-145 prostate): > 100 µM
- TGI (A549 NSCLC): > 100 µM
- TGI (OVCAR-4 ovarian): > 100 µM
- TGI (HCT-116 colon): > 100 µM
- TGI (OVCAR-3 ovarian): > 100 µM
- TGI (OVCAR-8 ovarian): > 100 µM
- TGI (MCF7 breast): > 100 µM
- TGI (MDA-N): > 100 µM
- TGI (OVCAR-5 ovarian): > 100 µM
- TGI (LOX IMVI melanoma): > 100 µM
- TGI (NCI-H23 lung): > 100 µM
- TGI (K-562 leukemia): > 100 µM
- TGI (SR leukemia): > 100 µM
- TGI (UO-31 renal): > 100 µM
- TGI (MALME-3M melanoma): > 100 µM
- TGI (SK-MEL-5 melanoma): > 100 µM
- TGI (IGROV1 ovarian): > 100 µM
- TGI (786-0 renal): > 100 µM
- TGI (M14 melanoma): > 100 µM
- TGI (HL-60(TB) leukemia): > 100 µM
- TGI (UACC-62 melanoma): > 100 µM
- TGI (SF-295 CNS): > 100 µM
- TGI (COLO 205 colon): > 100 µM
